Experimental findings from US20230134986A1, “GLUCOSE TRIPTOLIDE CONJUGATES AND USES THEREOF” (The Johns Hopkins University, priority 2020, published 2023) are described below.

The test system of series [1] is PC3. In words: XTT viability assay, PC3. The class given is cell-based. The settings on record: Homo sapiens, PC-3, Prostate Cancer. The text has this:
(§1) Cells and culture conditions. Primary astrocytes (Lonza, Walkersville, Md.; ABM™ Basal Media with AGM™ SingleQuots™ Supplement Pack), fibroblast (ATCC; Fibroblast Basal Medium (ATCC© PCS-201-030™) with Fibroblast Growth Kit-Serum-free (ATCC© PCS-201-040™)), airway epithelial cell (ATCC; Airway Epithelial Cell Basal Medium (ATCC© PCS-300-030™) with Bronchial Epithelial Cell Growth Kit (ATCC© PCS-300-040™)), renal proximal tubule (ATCC; Renal Epithelial Cell Basal Medium (ATCC© PCS-400-030™) with Renal Epithelial Cell Growth Kit (ATCC© PCS-400-040™)), prostate epithelial cell (Lonza; PrEGM™ BulletKit™) and mammary epithelial cell (Lonza; MEBM™ BulletKit™) were kept in a humidified incubator at 37° C. adjusted to 5% CO2. […]
XTT assay. […] Cell viability was measured using the R&D Systemsm TACS XTT Cell Proliferation/Viability Assay (R&D Systems, Minneapolis, Minn.).

In series [2] the test system is DLD-1 GLUT1 knockout (GLUT1 KO) cells. In words: DLD-1 GLUT1 knockout proliferation under hypoxia or normoxia. Format: cell-based, human.
Series [3] in a line: Stability of glutriptolides in human serum (HPLC-MS). Format: in vitro ADME. The settings on record: incubation for up to 72 h. On the procedure:
Stability of glutriptolides in human serum. Human serum (Sigma, 10% in DMEM media) was treated with 10 μM drug (triptolide or glutriptolides) at room temperature for various time points. The incubation was stopped by placing samples on dry ice followed by overnight storage in −80° C. Frozen samples were then lyophilized and reconstituted in DMSO at room temperature for an hour. Samples were centrifuged at 12,000 RPM for 10 minutes and supernatants loaded into an HPLC-MS with the following conditions: (Varian pursuit XR5 Diphenyl 150×4.6 mm; A phase: Millipore water with 0.1% HCOOH; B phase: Acetonitrile with 0.1% HCOOH; 0-6 min: […]; 6-24 min: 5% B-100% B; 24-28 min: 100% B; 28-29 min: 100% B5% B; 29-30 min: 5% B).

Series [4] relates to RPB1 in C342T XPB mutant cell line. The experiment in a line: RPB1 degradation in C342T XPB knock-in cells, western blot. Format: cell-based, human. The settings on record: C342T XPB mutant cell line, compound 1 up to 3 mM (so in the source).
Excerpt: as §1
Western blot analysis. […] Antibody-protein complexes were detected using enhanced chemiluminescence (ECL) immunoblotting detection reagent (EMD Millipore).

What is called IC50 is the point on the concentration scale where inhibition reaches its midpoint. In series [1], `CC(C)[C@]12O[C@H]1[C@@H]1O[C@]13[C@]1(O[C@H]1C[C@H]1C4=C(CC[C@@]13C)C(=O)OC4)[C@@H]2OC(=O)CCC(=O)O[C@@H]1OC(CO)[C@@H](O)C(O)C1O` (some centres unmarked) [Compound 10] returned a concentration for half-maximal inhibition (IC50) of 500 ± 100 nM.
Molecule `CC(C)[C@]12O[C@H]1[C@@H]1O[C@]13[C@]1(O[C@H]1C[C@H]1C4=C(CC[C@@]13C)C(=O)OC4)[C@@H]2OC(=O)CCCO[C@@H]1OC(CO)[C@@H](O)C(O)C1O` (stereo in doubt) [Compound 1] registered an IC50 in series [2] (Homo sapiens, DLD-1, GLUT1 knockout cell line, hypoxic conditions (1% oxygen)) of 2500 nM. The “difference in sensitivity between DLD-1 WT and GLUT1 KO” value in series [2] (normoxia (20% oxygen)) was “no difference in sensitivity”. Moreover, the “stability in human serum” value in series [3] is “remained largely intact”. The RPB1 level result in series [4] is “remained stable”.
